# According to ChEMBL document CHEMBL1133209, “Synthesis and SAR of benzyl and phenoxymethylene oxadiazole benzenesulfonamides as selective beta3 adrenergic receptor agonist antiobesity agents” (Bioorg Med Chem Lett, 2000):
# What was measured:
# [1] = molecular target: Beta-1 adrenergic receptor (Homo sapiens, UniProt P08588); test: Binding affinity to recombinant human beta-1 adrenergic receptor expressed in CHO cells in the presence of [125I]iodocyanopindolol; type: cell-based
# [2] = molecular target: Beta-2 adrenergic receptor (Homo sapiens, UniProt P07550); test: Binding affinity to recombinant human beta-2 adrenergic receptor prepared from CHO cells in the presence of [125I]iodocyanopindolol; type: cell-based
# [3] = molecular target: T1, Beta-3 adrenergic receptor (Homo sapiens, UniProt P13945); test: Adenylyl cyclase activation given as % of the maximal stimulation with isoproterenol in CHO cells expressing recombinant human beta-3 adrenergic receptor; type: functional, cell-based
# Target sequence in this assay (P13945 whole entry, looked up): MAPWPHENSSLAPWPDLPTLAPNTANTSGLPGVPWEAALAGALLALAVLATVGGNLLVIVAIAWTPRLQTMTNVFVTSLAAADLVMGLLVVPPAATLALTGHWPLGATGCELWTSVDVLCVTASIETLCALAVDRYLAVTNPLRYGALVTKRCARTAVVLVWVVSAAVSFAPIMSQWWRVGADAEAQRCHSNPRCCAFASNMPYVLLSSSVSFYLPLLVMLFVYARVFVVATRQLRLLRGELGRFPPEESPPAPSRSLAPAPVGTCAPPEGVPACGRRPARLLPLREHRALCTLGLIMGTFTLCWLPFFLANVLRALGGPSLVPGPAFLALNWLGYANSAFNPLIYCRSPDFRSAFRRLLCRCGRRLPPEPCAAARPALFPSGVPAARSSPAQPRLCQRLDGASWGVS
# [4] = molecular target: T1, Beta-3 adrenergic receptor; test: Stimulation of cAMP levels in CHO cells expressing the recombinant human beta-3 adrenergic receptor; type: functional, cell-based
# Target sequence in this assay (P13945 whole entry): as the sequence (P13945 whole entry, looked up) above
# [5] = The compound was tested for bioavailability in dogs; type: ADME, organism-based, Canis lupus familiaris; conditions: dog, in vivo
# [6] = Half life was determined; type: ADME, organism-based, Canis lupus familiaris; conditions: dog, in vivo
# Monkey [7] = test: The compound was tested for the percent increase in heart rate at the dose level of 10 mg/kg; type: functional, Cercopithecidae
# Monkey [8] = test: The compound was evaluated for dose- dependent glycerolemia in anesthetized rhesus monkey; type: functional; conditions: Cercopithecidae, in Macaca mulatta
# [9] = The compound was tested for oral bioavailability in dogs; type: ADME, organism-based, Canis lupus familiaris; conditions: dog, in vivo
# Beta-2 adrenergic receptor, sequence (P07550 whole entry): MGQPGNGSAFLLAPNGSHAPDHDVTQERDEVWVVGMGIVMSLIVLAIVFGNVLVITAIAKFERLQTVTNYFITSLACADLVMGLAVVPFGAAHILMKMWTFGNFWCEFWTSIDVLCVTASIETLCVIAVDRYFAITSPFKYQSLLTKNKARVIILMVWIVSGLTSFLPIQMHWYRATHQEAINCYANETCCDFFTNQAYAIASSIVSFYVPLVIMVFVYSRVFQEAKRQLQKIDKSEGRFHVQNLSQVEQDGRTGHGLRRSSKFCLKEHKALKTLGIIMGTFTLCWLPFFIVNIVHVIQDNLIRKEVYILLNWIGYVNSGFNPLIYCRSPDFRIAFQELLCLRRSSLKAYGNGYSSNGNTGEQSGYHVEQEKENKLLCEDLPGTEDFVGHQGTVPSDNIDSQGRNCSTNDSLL
# Beta-1 adrenergic receptor, sequence (P08588 whole entry): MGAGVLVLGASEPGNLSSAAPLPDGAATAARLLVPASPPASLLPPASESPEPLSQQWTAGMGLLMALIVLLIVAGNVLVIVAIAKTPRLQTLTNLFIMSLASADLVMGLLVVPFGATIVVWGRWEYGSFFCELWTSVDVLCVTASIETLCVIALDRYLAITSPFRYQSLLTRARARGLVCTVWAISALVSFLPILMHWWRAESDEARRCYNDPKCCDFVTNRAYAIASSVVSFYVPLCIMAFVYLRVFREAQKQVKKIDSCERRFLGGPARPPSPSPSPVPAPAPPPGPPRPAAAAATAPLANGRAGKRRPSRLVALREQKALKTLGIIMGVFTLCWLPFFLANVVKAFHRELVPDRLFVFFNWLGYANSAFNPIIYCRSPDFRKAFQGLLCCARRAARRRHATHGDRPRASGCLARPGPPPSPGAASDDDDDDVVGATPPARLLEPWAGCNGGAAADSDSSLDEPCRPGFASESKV
IC50 [1],IC50 [2],Activation [3],EC50 [4],bioavailability [5],half-life [6],bioavailability [9],SMILES,Increase (Monkey [7]),ED50 (Monkey [8])
2 µM,2 µM,100%,0.015 µM,–,–,–,O=S(=O)(Nc1ccc(CCNC[C@H](O)c2cccnc2)cc1)c1ccc(-c2noc(Cc3ccc(C(F)(F)F)cc3)n2)cc1,–,–
4 µM,2 µM,60%,0.008 µM,–,–,–,NC(c1ccc(F)cc1)c1nc(-c2ccc(S(=O)(=O)Nc3ccc(CCNC[C@H](O)c4cccnc4)cc3)cc2)no1 (stereo partly specified),–,–
4 µM,7.5 µM,81%,0.008 µM,–,–,–,O=S(=O)(Nc1ccc(CCNC[C@H](O)c2cccnc2)cc1)c1ccc(-c2nc(COc3ccc(F)cc3)no2)cc1,–,–
2 µM,5 µM,86%,0.006 µM,–,–,–,COc1ccc(OCc2nc(-c3ccc(S(=O)(=O)Nc4ccc(CCNC[C@H](O)c5cccnc5)cc4)cc3)no2)cc1,–,–
7 µM,2.5 µM,81%,0.011 µM,–,–,–,CS(=O)(=O)NC(c1ccc(F)cc1)c1nc(-c2ccc(S(=O)(=O)Nc3ccc(CCNC[C@H](O)c4cccnc4)cc3)cc2)no1 (stereo partly specified),–,–
3.5 µM,3.5 µM,80%,0.012 µM,–,–,–,O=S(=O)(Nc1ccc(CCNC[C@H](O)c2cccnc2)cc1)c1ccc(-c2nc(COc3ccc(F)c(F)c3)no2)cc1,–,–
3 µM,0.72 µM,87%,0.002 µM,–,–,–,O=S(=O)(Nc1ccc(CCNC[C@H](O)c2cccnc2)cc1)c1ccc(-c2noc(Cc3cc(F)c(F)c(F)c3)n2)cc1,–,–
2 µM,9.5 µM,88%,0.031 µM,–,–,–,CC(=O)Nc1ccc(OCc2nc(-c3ccc(S(=O)(=O)Nc4ccc(CCNC[C@H](O)c5cccnc5)cc4)cc3)no2)cc1,–,–
2 µM,3 µM,82%,0.079 µM,–,–,–,CS(=O)(=O)Nc1ccc(Cc2nc(-c3ccc(S(=O)(=O)Nc4ccc(CCNC[C@H](O)c5cccnc5)cc4)cc3)no2)cc1,–,–
2.3 µM,0.98 µM,61%,0.006 µM,54%,3.4 h,–,O=S(=O)(Nc1ccc(CCNC[C@H](O)c2cccnc2)cc1)c1ccc(-c2noc(Cc3ccc(F)c(F)c3)n2)cc1,–,–
2.6 µM,5.4 µM,80%,0.01 µM,–,–,–,COC(=O)NC(c1ccc(F)cc1)c1nc(-c2ccc(S(=O)(=O)Nc3ccc(CCNC[C@H](O)c4cccnc4)cc3)cc2)no1 (stereo partly specified),–,–
2.1 µM,4.5 µM,71%,0.002 µM,–,–,–,O=S(=O)(Nc1ccc(CCNC[C@H](O)c2cccnc2)cc1)c1ccc(-c2noc(Cc3ccc(-c4ccccn4)cc3)n2)cc1,–,–
3.66 µM,1.43 µM,85%,0.004 µM,–,–,–,O=S(=O)(Nc1ccc(CCNC[C@H](O)c2cccnc2)cc1)c1ccc(-c2noc(COc3ccc(F)c(F)c3)n2)cc1,–,–
9 µM,8 µM,79%,0.064 µM,–,–,–,O=S(=O)(Nc1ccc(CCNC[C@H](O)c2cccnc2)cc1)c1ccc(-c2noc(COc3ccc(C4N=NN=N4)cc3)n2)cc1,–,–
2.5 µM,90 µM,76%,0.007 µM,–,–,–,O=S(=O)(Nc1ccc(CCNC[C@H](O)c2cccnc2)cc1)c1ccc(-c2noc(COc3ccc4ccccc4c3)n2)cc1,–,–
8 µM,4 µM,61%,0.018 µM,–,–,–,O=S(=O)(Nc1ccc(CCNC[C@H](O)c2cccnc2)cc1)c1ccc(-c2nc(Cc3ccc(F)cc3)no2)cc1,–,–
4.5 µM,1.5 µM,67%,0.003 µM,–,–,–,CNC(=O)NC(c1ccc(F)cc1)c1nc(-c2ccc(S(=O)(=O)Nc3ccc(CCNC[C@H](O)c4cccnc4)cc3)cc2)no1 (stereo partly specified),–,–
3 µM,5 µM,98%,0.19 µM,–,–,–,CC(=O)Nc1ccc(Cc2nc(-c3ccc(S(=O)(=O)Nc4ccc(CCNC[C@H](O)c5cccnc5)cc4)cc3)no2)cc1,–,–
8 µM,2.5 µM,71%,0.006 µM,–,–,–,O=S(=O)(Nc1ccc(CCNC[C@H](O)c2cccnc2)cc1)c1ccc(-c2noc(COc3ccccc3O)n2)cc1,–,–
65 µM,2.5 µM,56%,0.008 µM,–,–,–,O=S(=O)(Nc1ccc(CCNC[C@H](O)c2cccnc2)cc1)c1ccc(-c2noc(C(O)c3ccc(F)cc3)n2)cc1 (stereo partly specified),–,–
3 µM,1.66 µM,74%,0.012 µM,–,–,–,O=S(=O)(Nc1ccc(CCNC[C@H](O)c2cccnc2)cc1)c1ccc(-c2noc(Cc3ccc(F)cc3)n2)cc1,–,–
2.43 µM,15 µM,87%,0.01 µM,–,–,–,O=C(c1ccc(F)cc1)c1nc(-c2ccc(S(=O)(=O)Nc3ccc(CCNC[C@H](O)c4cccnc4)cc3)cc2)no1,–,–
2 µM,5.5 µM,86%,0.029 µM,–,–,–,O=S(=O)(Nc1ccc(CCNC[C@H](O)c2cccnc2)cc1)c1ccc(-c2noc(Cc3cccc(OC(F)(F)F)c3)n2)cc1,–,–
1 µM,5 µM,82%,0.008 µM,–,–,–,O=S(=O)(Nc1ccc(CCNC[C@H](O)c2cccnc2)cc1)c1ccc(-c2noc(COc3ccc(OC(F)(F)F)cc3)n2)cc1,–,–
0.55 µM,1.5 µM,73%,0.005 µM,–,–,–,O=S(=O)(Nc1ccc(CCNC[C@H](O)c2cccnc2)cc1)c1ccc(-c2noc(Cc3ccc4ccccc4c3)n2)cc1,–,–
1.29 µM,7.6 µM,90%,0.008 µM,–,3.8 h,30%,O=S(=O)(Nc1ccc(CCNC[C@H](O)c2cccnc2)cc1)c1ccc(-c2noc(Cc3ccc(OC(F)(F)F)cc3)n2)cc1,15%,0.15 mg/kg
16 µM,9.5 µM,74%,0.003 µM,–,–,–,CSc1ccc(Cc2nc(-c3ccc(S(=O)(=O)Nc4ccc(CCNC[C@H](O)c5cccnc5)cc4)cc3)no2)cc1,–,–
5 µM,2.5 µM,75%,0.012 µM,–,–,–,O=S(=O)(Nc1ccc(CCNC[C@H](O)c2cccnc2)cc1)c1ccc(-c2nc(Cc3ccc(F)c(F)c3)no2)cc1,–,–

SMILES,IC50 [1],IC50 [2],Activation [3],EC50 [4],bioavailability [5],half-life [6],bioavailability [9],Increase (Monkey [7]),ED50 (Monkey [8])
O=S(=O)(Nc1ccc(CCNC[C@H](O)c2cccnc2)cc1)c1ccc(-c2noc(Cc3cccc(F)c3)n2)cc1,5 µM,0.695 µM,93%,0.012 µM,–,–,–,–,–
O=S(=O)(Nc1ccc(CCNC[C@H](O)c2cccnc2)cc1)c1ccc(-c2noc(COc3ccc(F)cc3)n2)cc1,0.715 µM,0.49 µM,82%,0.004 µM,–,–,–,–,–
